Experiments:
[1] = for molar entropy: 101.33 kPa, Vacuum adiabatic calorimetry
[2] = molar heat capacity at constant pressure; details: 101.33 kPa, Vacuum adiabatic calorimetry

[Cl][Ru-2]([Cl])([Cl])([Cl])([Cl])[Cl].[NH4+].[NH4+] [diammonium hexachlororuthenate]
Details | molar entropy, [1] [J/K/mol] | molar heat capacity at constant pressure, [2] [J/K/mol]
5 K, Crystal 2 | 0.1106 | 0.3475
5.89 K, Crystal 2 | – | 0.5877
7.09 K, Crystal 2 | – | 1.079
8.03 K, Crystal 2 | – | 1.495
9.46 K, Crystal 2 | – | 2.313
10 K, Crystal 2 | 0.9395 | 2.661
10.8 K, Crystal 2 | – | 3.236
11.99 K, Crystal 2 | – | 4.23
13.2 K, Crystal 2 | – | 5.407
14.5 K, Crystal 2 | – | 6.916
15 K, Crystal 2 | 2.827 | 7.358
15.9 K, Crystal 2 | – | 8.589
17.35 K, Crystal 2 | – | 10.37
18.81 K, Crystal 2 | – | 12.31
20 K, Crystal 2 | 5.82 | 13.97
20.31 K, Crystal 2 | – | 14.26
21.81 K, Crystal 2 | – | 16.45
23.4 K, Crystal 2 | – | 18.76
25 K, Crystal 2 | 9.703 | 21.24
25.1 K, Crystal 2 | – | 21.38
26.81 K, Crystal 2 | – | 24.18
28.54 K, Crystal 2 | – | 26.91
30 K, Crystal 2 | 14.44 | 29.49
30.27 K, Crystal 2 | – | 30.01
32.02 K, Crystal 2 | – | 33.06
33.91 K, Crystal 2 | – | 36.87
35 K, Crystal 2 | 19.68 | 38.87
35.95 K, Crystal 2 | – | 40.66
37.99 K, Crystal 2 | – | 44.72
40 K, Crystal 2 | 25.51 | 48.89
40.05 K, Crystal 2 | – | 48.96
42.12 K, Crystal 2 | – | 53.55
44.2 K, Crystal 2 | – | 58.17
45 K, Crystal 2 | 31.89 | 59.91
46.3 K, Crystal 2 | – | 62.77
48.41 K, Crystal 2 | – | 67.6
50 K, Crystal 2 | 38.8 | 71.36
50.8 K, Crystal 2 | – | 73.15
53.47 K, Crystal 2 | – | 79.64
55 K, Crystal 2 | 46.15 | 83.48
56.15 K, Crystal 2 | – | 86.22
58.85 K, Crystal 2 | – | 92.96
60 K, Crystal 2 | 53.94 | 95.95
61.55 K, Crystal 2 | – | 100.02
64.27 K, Crystal 2 | – | 107.34
65 K, Crystal 2 | 62.15 | 109.25
67.13 K, Crystal 2 | – | 114.99
70 K, Crystal 2 | 70.73 | 122.72
70.82 K, Crystal 2 | – | 125.13
75 K, Crystal 2 | 79.67 | 136.44
75.14 K, Crystal 2 | – | 136.94
79.45 K, Crystal 2 | – | 149.83
80 K, Crystal 2 | 88.97 | 151.49
83.79 K, Crystal 2 | – | 162.3
85 K, Crystal 2 | 98.53 | 165.79
88.18 K, Crystal 2 | – | 174.11
90 K, Crystal 2 | 108.42 | 179.09
92.84 K, Crystal 1 | – | 184.67
92.84 K, Crystal 2 | – | 184.67
95 K, Crystal 1 | 118.32 | 184.75
97.88 K, Crystal 1 | – | 182
100 K, Crystal 1 | 127.71 | 180.76
103.06 K, Crystal 1 | – | 178.1
105 K, Crystal 1 | 136.44 | 179.26
108.18 K, Crystal 1 | – | 182.59
110 K, Crystal 1 | 144.92 | 184.83
113.23 K, Crystal 1 | – | 188.41
115 K, Crystal 1 | 153.24 | 190.49
118.27 K, Crystal 1 | – | 194.14
120 K, Crystal 1 | 161.47 | 196.14
123.32 K, Crystal 1 | – | 199.88
125 K, Crystal 1 | 169.62 | 201.54
128.39 K, Crystal 1 | – | 205.12
130 K, Crystal 1 | 177.6 | 206.62
133.46 K, Crystal 1 | – | 209.77
135 K, Crystal 1 | 185.5 | 211.35
138.55 K, Crystal 1 | – | 214.6
140 K, Crystal 1 | 193.31 | 215.93
143.8 K, Crystal 1 | – | 219.17
145 K, Crystal 1 | 200.96 | 220.17
149.2 K, Crystal 1 | – | 223.33
150 K, Crystal 1 | 208.44 | 224.24
154.62 K, Crystal 1 | – | 227.65
160 K, Crystal 1 | 223.16 | 231.48
160.04 K, Crystal 1 | – | 231.39
165.48 K, Crystal 1 | – | 235.13
170 K, Crystal 1 | 237.38 | 238.13
170.9 K, Crystal 1 | – | 238.71
176.33 K, Crystal 1 | – | 242.45
180 K, Crystal 1 | 251.18 | 244.78
181.77 K, Crystal 1 | – | 245.78
187.21 K, Crystal 1 | – | 249.27
190 K, Crystal 1 | 264.65 | 251.43
192.66 K, Crystal 1 | – | 253.09
198.19 K, Crystal 1 | – | 256.75
200 K, Crystal 1 | 277.7 | 257.83
203.88 K, Crystal 1 | – | 260.16
209.62 K, Crystal 1 | – | 263.57
210 K, Crystal 1 | 290.43 | 263.74
215.39 K, Crystal 1 | – | 266.9
220 K, Crystal 1 | 302.81 | 269.06
221.19 K, Crystal 1 | – | 269.39
226.95 K, Crystal 1 | – | 272.55
230 K, Crystal 1 | 314.87 | 274.21
232.71 K, Crystal 1 | – | 275.46
238.48 K, Crystal 1 | – | 277.79
240 K, Crystal 1 | 326.68 | 278.37
244.25 K, Crystal 1 | – | 279.78
250 K, Crystal 1 | 338.07 | 281.53
250.07 K, Crystal 1 | – | 281.53
256.04 K, Crystal 1 | – | 283.36
260 K, Crystal 1 | 349.21 | 284.44
262.1 K, Crystal 1 | – | 285.02
268.12 K, Crystal 1 | – | 286.68
270 K, Crystal 1 | 359.93 | 287.18
274.34 K, Crystal 1 | – | 288.18
280 K, Crystal 1 | 370.49 | 290.18
280.52 K, Crystal 1 | – | 290.51
286.4 K, Crystal 1 | – | 292.01
290 K, Crystal 1 | 380.72 | 293.09
292.34 K, Crystal 1 | – | 293.92
298.15 K, Crystal 1 | 388.87 | 295.66
298.3 K, Crystal 1 | – | 295.25
300 K, Crystal 1 | 390.7 | 296.16
304.21 K, Crystal 1 | – | 297.33
310 K, Crystal 1 | 400.43 | 298.91
310.08 K, Crystal 1 | – | 298.91
315.97 K, Crystal 1 | – | 300.4
320 K, Crystal 1 | 409.99 | 301.15
321.87 K, Crystal 1 | – | 301.57
325 K, Crystal 1 | 414.64 | 302.23

Details | Triple point temperature [K]
[1], Crystal 2, Adiabatic calorimetry | 92.84

Reference: the NIST ThermoML archive (doi:10.1016/j.jct.2013.07.006)
